The values that follow come from US7842683B2, “Neurotherapeutic compositions and method” (Revaax Pharmaceuticals, LLC, priority 1999, dated 2010).

Data set [1] deals with rats. Nature of the data set: Morris water maze, spatial navigation. It counts as in vivo, rat. The source says: The Morris water maze like the radial arm maze was developed to test spatial memory (Morris, 1984). The pool is divided into quadrants usually designated North, South, East and West. The water in the pool is made opaque with milk powder. Hidden just beneath the surface in one of the quadrants is a platform that serves as a escape route for rodents placed into the pool. An animal is placed some where in the pool from a variety of different start points and is timed for latency to find the platform, percent time spent in each quadrant, distance traveled and swimming speed. The animals has no visual or spatial cues in the pool and must rely on extra-maze cues, i.e., objects set up outside the pool that can be seen by the swimming animal. Through a series of trials a rat develops “place learning” or knowledge about the position of the platform based upon the extra-maze cues. The platform can be moved to a different quadrant each day combining spatial memory with working memory. This paradigm involves extinction of the prior memory and resolution of a new spatial problem.
The water maze consisted of a black plastic circular pool ca. 150 cm in diameter and 54 cm in height filled to a level of 35 cm with water made opaque with powdered milk. The pool was divided into four quadrants with a platform 10 cm in diameter submerged 2 cm below the surface in the northwest quadrant. The water was maintained at a temperature of 25° C. Around the pool were several visual cues. Above the pool was a video camera for tracking the movement of the experimental animal. The data collection was completely automated using the software developed by HVS Image (Hampton, UK). Before testing, rats were familiarized with the pool and platform placed in the northwest quadrant. Each day for 4 consecutive days, animals were placed into pool at random sites and given two min to find the platform. Animals were treated one hr before testing with 50 μg/kg Mox (n=11) or vehicle (n=10). Following these familiarization trials, animals were tested for spatial navigation. The first day of testing began with the platform in the expected northwest quadrant. All behavior was videotaped for a two min observation period. After testing the animal were dried off and placed back into their home cage. On each subsequent day the platform was moved to a new quadrant and the rat started at different positions. The rat was always placed into the pool facing the side wall. The start positions relative to the platform were different for each of the four trials; however, the platform was always in the same relative position in each quadrant. Twenty cm in from the side of the pool and in the left corner from the center facing out.
The Morris water maze was developed to test spatial memory (Morris, 1984). The pool is divided into quadrants usually designated North, South, East and West. The water in the pool is made opaque with milk powder. Hidden just beneath the surface in one of the quadrants is a platform that serves as a escape route for rodents placed into the pool. An animal is placed some where in the pool from a variety of different start points and is timed for latency to find the platform, percent time spent in each quadrant, distance traveled and swimming speed. The animals have no visual or spatial cues in the pool and must rely on extra-maze cues, i.e., objects set up outside the pool that can be seen by the swimming animal. Through a series of trials a rat develops “place learning” or knowledge about the position of the platform based upon the extra-maze cues. The platform can be moved to a different quadrant each day combining spatial memory with working memory. This paradigm involves extinction of the prior memory and resolution of a new spatial problem.
The water maze consisted of a black plastic circular pool ca. 150 cm in diameter and 54 cm in height filled to a level of 35 cm with water made opaque with powdered milk. […]

For data set [2], the system named is rats. Description: Motor activity in an open field (plus-maze animals). It is filed as in vivo, rat. As to the method: However, this depression of motor activity disappears following repeated administration of CDP over several days. […] To control for any non-specific effects of Mox and CDP on motor activity following their direct injection into the brain, animals were tested in the open field 30 min prior to testing in the plus (FIG. 18).
Immediately after each of the plus-maze tests reported above in Section II, animals were tested for general motor activity in an “open field.” Animals were placed into a large clean Plexiglas cage (48×32×40 cm) devoid of bedding. This open field was delineated into equal quadrants by tape on the underside of the cage. Animals were scored for motor activity by counting the number of quadrants traversed in 1 min.

For data set [3], the system named is rats. Description: Morris water maze, cue navigation. It counts as in vivo, rat. As to the method: (§1) On the day following the last day (Day 4) of spatial navigation, animals were tested for cue navigation. In these tests, the platform was raised above water level. One hr before testing animals were treated with Mox or saline vehicle. The same animals that were treated with Mox during spatial navigation were treated with Mox for cue navigation. Animals were run through a series of two minute trials with 45 min between trials. At each trial, the platform was moved to a different quadrant. The cue navigation study was identical to the spatial navigation except the platform was visible and the testing was done over five consecutive trials done on a single day. Animals were scored for latency to find the platform, percent time spent in each quadrant, path distance and swim speed for all testing periods
as §1, with “CLAV” for “Mox”, “animals” for “animals that were”, “min” for “minute”

The subject of the next data set is male hamsters. Description: Sexual activity toward a receptive female. It is filed as in vivo, golden hamsters. As to conditions: 50 μg/kg, 90 min. As to the method: Six animals were tested over a five min observation period for sexual activity following treatment with saline vehicle or 50 μg/kg Mox (FIG. 6). The study was counter balanced with each animal receiving each treatment. Ninety min after injection, animals were scored for latency to mount and number of intromissions, i.e., bouts of copulation, toward a receptive female placed into their home cage. Female golden hamsters were ovariectomized under general anesthesia. Following recovery animals were treated with a single SC injection of […] estradiol benzoate for three consecutive days to induce sexual receptivity. On the day of testing the estrogen primed females were introduced into the home cage of the experimental males. […] Lordosis, is a stereotyped posture characterized by intense, sustained vertebral dorsiflexion.

Turning to `CO[C@@]1(NC(=O)C(C(=O)O)c2ccc(O)cc2)C(=O)N2C(C(=O)O)=C(CSc3nnnn3C)CO[C@@H]21` (stereo partly drawn) [Mox, 7-β-[2-carboxy-2-(4-hydroxyphenyl)acetamido]-7α-methoxy-3-[[(1-methyl-1H-tetrazol-5-yl)thio]methyl]-1-oxa-1-dethia-3-cephem-4-carboxylic acid], in the data set with rats [1] (Mox 50 μg/kg), the “distance covered to reach the platform” value is “not significantly different”, the “percentage of time spent in each quadrant” value (shortened to “percentage of time spent”) is reported as “no significant difference between treatments” and the swim speed entry is given as “significantly greater swim speed”. Besides, the “latency to find the hidden platform” value in the data set on rats [1] (Mox 50 μg/kg one hr before testing, days two, three and four) is given as “significantly shorter latencies”. Further, the “swim speed relative to vehicle” value in the data set with rats [1] (Mox 50 μg/kg, Day 2) is recorded as “almost twice the speed”. Further, in the data set on rats [2] (1 mM direct injection into the brain, 30 min prior to plus-maze), the “general motor activity in the open field” value is “no significant effect”. Further, in the data set on rats [3] (Mox), the path length entry is “much shorter path length”, the “percentage of time spent” value is listed as “no significant difference between treatments” and the swim speed entry was “no significant difference”. For the same compound, the “latency to find the platform” value in the data set on rats [3] (Mox, trials 1, 3 and 4) is “significantly shorter latencies”. The intromission rate entry with male hamsters is “trend toward a decreased intromission rate”. In the data set on male hamsters (five min observation), the time to mount entry was “significantly increased”.

On to `O=C(O)[C@H]1/C(=C/CO)O[C@@H]2CC(=O)N21` [CLAV, Clavulanic acid], for which, in the data set on rats [1] (CLAV 1.0 μg/kg), the “percentage of time spent” value is “no significant difference between treatments” and the swim rate entry is reported as “no significant difference”. Also, the “latency to find the platform, main effect” value with rats [1] (CLAV 1.0 μg/kg one hr before testing) is given as “no main effect for drug treatment”. Also, the “path length to find the platform” value with rats [1] (CLAV 1.0 μg/kg, Day 1) is listed as “much shorter distance”. Further, the “time spent in the correct (South) quadrant” value in the data set with rats [1] (CLAV 1.0 μg/kg, Day 2) is listed as “over 50%”. For the same compound, the “latency to find the platform” value in the data set on rats [1] (CLAV 1.0 μg/kg, Days 1 and 4, trend towards significance) is on record as “shorter latencies”. Besides, the “open field activity (quadrants traversed in 1 min)” value with rats [2] (CLAV 1.0 μg/kg IP, immediately after plus-maze) is on record as “no significant differences”. Besides, in the data set with rats [3] (CLAV), the “distance traveled to find the platform” value is “not significantly different”, the “latency to find the platform” value was “no main effect for treatments”, the “percentage of time spent” value is listed as “no significant difference between treatments” and the swim rate result was “no significant main effect”.
